Here are results for four compounds from ChEMBL document CHEMBL1127928, “Macrolide-type motilin receptor agonists: Assessment of the biological value of the 2- and 4-hydroxyl groups of acid-stable 8,9-anhydroerythromycin A 6,9-hemiacetals” (Bioorg Med Chem Lett, 1994).

For one experiment, the species on record is Oryctolagus cuniculus. Nature of the experiment: In vitro contractile activity was measured in the rabbit duodenum preparation. It counts as functional.
Experiment [1] deals with T1, Motilin receptor (Oryctolagus cuniculus, UniProt A5A4K8). The experiment in a line: In vitro binding affinity towards motilin receptor was determined in rabbit small intestinal smooth muscle tissue homogenate. The experiment is classed as tissue-based.
T1 sequence (A5A4K8 whole entry): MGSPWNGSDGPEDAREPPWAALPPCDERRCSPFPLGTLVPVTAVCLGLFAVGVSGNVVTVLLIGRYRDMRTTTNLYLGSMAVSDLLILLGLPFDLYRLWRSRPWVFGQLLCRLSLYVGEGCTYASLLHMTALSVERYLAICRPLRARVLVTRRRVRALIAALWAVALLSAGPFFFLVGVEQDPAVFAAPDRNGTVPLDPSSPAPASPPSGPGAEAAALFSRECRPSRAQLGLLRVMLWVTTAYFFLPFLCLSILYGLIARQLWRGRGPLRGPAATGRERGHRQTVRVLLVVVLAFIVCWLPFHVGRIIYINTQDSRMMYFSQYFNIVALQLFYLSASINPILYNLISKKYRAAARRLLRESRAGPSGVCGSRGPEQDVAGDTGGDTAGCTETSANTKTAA
Experiment [2] deals with Canis familiaris. Nature of the experiment: In vivo contractile activity in the gastric antrum and the small intestine in fasted conscious dogs upon intravenous administration was determined. It counts as functional, Canis lupus familiaris.
Experiment [3] concerns the target T1, Motilin receptor. The experiment in a line: In vitro binding affinity towards motilin receptor was determined after treatment with hydrochloric acid in rabbit small intestinal smooth muscle tissue homogenate. It counts as tissue-based.
A further experiment has as its system Klebsiella pneumoniae. Nature of the experiment: Tested for antimicrobial activity against Klebsiella pneumoniae IFO 3512. It counts as functional.
For a further experiment, the system named is Staphylococcus aureus. Nature of the experiment: Tested for antimicrobial activity against Staphylococcus aureus 209P. The experiment is classed as functional.
The subject of another experiment is Bacillus subtilis. The experiment in a line: Tested for antimicrobial activity against Bacillus subtilis ATCC 6633. It counts as functional.
The test system of experiment [4] is Canis familiaris. The experiment in a line: In vivo contractile activity in the gastric antrum and the small intestine in fasted conscious dogs upon intragastric administration was determined. The experiment is classed as functional, Canis lupus familiaris.
The test system of another experiment is Streptococcus pneumoniae. The experiment in a line: Tested for antimicrobial activity against Streptococcus pneumoniae No. 12. The experiment is classed as functional.

≈ marks a conversion by molar mass, not a printed value. Bounds are passed on as bounds.

In general, EC50 refers to the midpoint of the concentration-response curve. A lower EC50 goes with an effect from little substance. By IC50 is commonly meant the concentration that inhibits the measured activity by half. Higher therefore signals a need for much substance. Take `CCC1OC(=O)C(C)C(O[C@H]2C[C@@](C)(OC)CC(C)O2)C(C)[C@@H](OC2CC(N(C)C(C)C)CC(C)O2)[C@]2(C)CC(C)=C(O2)[C@H](C)C(=O)[C@]1(C)OC` (some centres undefined): the EC50 in the experiment filed under Oryctolagus cuniculus was 209 nM. Moreover, the half-inhibitory concentration (IC50) at Motilin receptor [1] is 1.86 nM. In the experiment with Canis familiaris [2], the MI100 is more than 70 µg/kg.
The MIC is the least concentration at which growth counts as inhibited. For the compound `CCC1OC(=O)C(C)C(O[C@H]2C[C@@](C)(OC)CC(C)O2)C(C)[C@@H](OC2OC(C)CC(N(C)C)[C@H]2O)[C@]2(C)CC(C)=C(O2)[C@H](C)C(=O)[C@]1(C)OC` (some centres undefined), the IC50 is 3.89 nM on Motilin receptor [3] and 2.29 nM on Motilin receptor [1]. Further, the response in the experiment listed under Oryctolagus cuniculus was half-maximal at 10.5 nM (EC50). For the same compound, the MIC stood at 100 µg/mL (≈ 140 µM) in the experiment with Klebsiella pneumoniae, 100 µg/mL (≈ 140 µM) against Staphylococcus aureus, 50 µg/mL (≈ 70.2 µM) against Bacillus subtilis and 1600 µM in the experiment with Streptococcus pneumoniae (read-out: MIC). Also, the MI100 in the experiment with Canis familiaris [4] stood at 1.2 µg/kg; in the experiment with Canis familiaris [2] it was 0.4 µg/kg.
`CCC1OC(=O)C(C)C(O[C@H]2C[C@@](C)(OC)CC(C)O2)C(C)[C@@H](OC2OC(C)CC(N(C)CC)[C@H]2O)[C@]2(C)CC(C)=C(O2)[C@H](C)C(=O)[C@]1(C)OC` (some centres undefined): the values for the IC50 at Motilin receptor [3] and on Motilin receptor [1] were 3.8 nM and 3.47 nM, respectively. This compound also gave an EC50 in the experiment filed under Oryctolagus cuniculus of 9.12 nM. The MI100 with Canis familiaris [4] came to 0.2 µg/kg; in the experiment on Canis familiaris [2], 0.3 µg/kg. In addition, it took 100 µg/mL to inhibit growth against Streptococcus pneumoniae (MIC).
`CCC1OC(=O)C(C)C(O[C@H]2C[C@@](C)(OC)CC(C)O2)C(C)[C@@H](OC2OC(C)CC(N(C)C(C)C)[C@H]2O)[C@]2(C)CC(C)=C(O2)[C@H](C)C(=O)[C@]1(C)OC` (some centres undefined): the IC50 on Motilin receptor [3] is 1.78 nM; on Motilin receptor [1], 2.51 nM. In the experiment listed under Oryctolagus cuniculus, this compound had an EC50 of 6.17 nM. The MI100 turned out to be 0.3 µg/kg in the experiment with Canis familiaris [4] and 0.09 µg/kg in the experiment on Canis familiaris [2]. Moreover, the MIC with Streptococcus pneumoniae was 100 µg/mL.
